What was measured:
[1] = test system: ICAM-1; experiment: Immunohistochemistry of aortic wall, ICAM-1; assay type: in vivo, mice; details: for aorta (ICAM-1) signal expression in blood vessels: IHC-P×400, single animal micrograph; for ICAM-1 average optical density: aortic wall
Excerpt: (§1) Methods: SPF grade C57BL/6 ApoE −/−model mice were provided by Guangdong Medical Experimental Animal Center, laboratory animal production license No. SOCK (Guangdong) 2013-0002. Laboratory animal quality certificate number: 44007200048196). Mice were half male and half female, aged 8 to 12 weeks, and 72 animals in total. After four weeks of housing in a SPF-level animal facility, animals with less body weights were disposed. A total of 64 animals were randomly divided into 8 groups, 8 in each group, fed with 10% high-fat food, and received with different treatments. Animals were observed and administered with the medicines by gavage once daily. The body weights were measured once a week and continued for 58 days. […] The test sample was dissolved in dimethyl sulfoxide solution and prepared with 30% PEG300.
(§2) After blood collection, the animals were sacrificed, and the aortic arch together with the heart and thoracic aorta were fixed with neutral formaldehyde and subject to pathological examination. The abdominal aorta was collected and quick-frozen in liquid nitrogen, and stored at −80° C.
(§3) c) Immunohistochemistry: The thoracic aorta was sliced and detected by immunohistochemistry for the expression of CD68, intercellular adhesion molecule-1 (ICAM-1), and vascular cell adhesion Molecule-1 (VCAM-1).

[2] = test system: ApoE knockout mice; experiment: Blood lipid metabolism TG, TCHO, HDL-c, LDL-c (Example 2); assay type: in vivo
Excerpt: Methods: A total of 130 SPF grade C57BL/6 ApoE −/− model male mice aged 8 weeks were purchased from Charles River Laboratories (Beijing, China) (animal license number: SCXK (Beijing) 2016-0001, animal qualification certificate No.: 11400700331337). After one week of acclimatization in a SPF-grade animal facility, the animals with less weights were discarded and the rest was randomly divided into 11 groups, with 8 animals in each group. Except for the healthy control group, the rest were fed with 10% high-fat food (the first day of the high-fat diet was recorded as D1). Starting from the 8th week of the high-fat diet, each group of animals was orally given solvents or corresponding drugs, and the volume of administration was 10 ml/kg, once a day for 8 weeks. Animals were observed and administered by gavage once a day and the body weight were measured once a week for 56 days. […] The store solution of the test samples was dissolved in dimethyl sulfoxide solution and prepared with 30% PEG300.
At the end of the experiment, the animals were euthanized by inhalation of carbon dioxide. Blood was taken from the heart, and centrifuged at 3000 r/min at a low temperature centrifuge for 10 min to separate the serum. The levels of total cholesterol TC, triglyceride TG, high-density lipoprotein HDL-C, and low-density lipoprotein LDL-C were measured, and the remaining serum was stored in a refrigerator at −80° C.
Before the start of the experiment, animal blood samples were analyzed for blood lipid metabolism, including conventional triglyceride (TG), total cholesterol (TCHO), high-density lipoprotein (HDL-c) and low-density lipoprotein (LDL-c). After high-fat or ordinary food feeding for 8 weeks, the blood lipid levels were measured again. After the drug treatment was started, blood lipid measurements were performed every four weeks until the end of the experiment.

[3] = test system: atherosclerotic lesions in ApoE knockout mice; experiment: Aortic HE and oil red O staining, atherosclerotic lesion scores (Example 1); assay type: in vivo; details: for formation of arterial plaque (pathological results): medium doses, preventive treatment; for Mild n (number of animal cases with mild lesions) / Moderate n (number of animal cases with moderate lesions) / No lesion n (number of animal cases) / Severe n (number of animal cases with severe lesions): of 8 animals; for animals that had atherosclerosis (histological observation): of 8 aortas examined; for effect on atherosclerotic lesions compared with the statin group: overall, aortic pathology Example 1
Excerpt: as §1, §2
a) HE staining: aortic arch was sliced and HE stained. The plaques were observed under optical microscope.
b) Oil red O staining: aortic arch was sliced and oil red O stained. The plaques were observed under optical microscope.

[4] = test system: VCAM-1; experiment: Immunohistochemistry of aortic wall, VCAM-1; assay type: in vivo, mice; details: for aorta (VCAM-1) signal expression in blood vessels: IHC-P×400, single animal micrograph; for VCAM-1 average optical density: aortic wall
Excerpt: as §1, §2, §3

[5] = test system: CD68; experiment: Immunohistochemistry of aortic wall, CD68; assay type: in vivo, mice; details: for aorta (CD68) signal expression in blood vessels: IHC-P×400, single animal micrograph; for CD68 average optical density: aortic wall
Excerpt: as §1, §2, §3

[6] = 5 mg/kg gavage QD, listed as Nib1, 5 mg/kg
[7] = 5 mg/kg gavage QD, listed as sample A, 5 mg/kg
[8] = 10 mg/kg gavage QD, listed as sample A, 10 mg/kg
[9] = score 0-3 per Table 8, 2 mg/kg body weight
[10] = score 0-3 per Table 8, 5 mg/kg body weight
[11] = 2 mg/kg gavage QD, listed as Nib2, 2 mg/kg

O=c1[nH]c2ccccc2n1C1CCN(CCCC(c2ccc(F)cc2)c2ccc(F)cc2)CC1 [Sample A]
aorta (ICAM-1) signal expression in blood vessels ([1]; 2 mg/kg): low to medium
aorta (ICAM-1) signal expression in blood vessels ([1]; 5 mg/kg): low to medium
aorta (ICAM-1) signal expression in blood vessels ([1]; 10 mg/kg): low to medium
ICAM-1 average optical density ([1]; 2 mg/kg gavage QD, 2 mg/kg): 2.11 ± 1.53 ×10^−2
ICAM-1 average optical density ([1]; 2 mg/kg gavage QD, listed as sample A, 2 mg/kg): lower than the model control group
ICAM-1 average optical density ([1]; 5 mg/kg gavage QD, 5 mg/kg): 2.31 ± 1.16 ×10^−2
ICAM-1 average optical density [1, 6]: reduced expression
ICAM-1 average optical density [1, 7]: lower than the model control group
ICAM-1 average optical density ([1]; 10 mg/kg gavage QD, 10 mg/kg): 1.75 ± 1.46 ×10^−2
ICAM-1 average optical density [1, 8]: lower than the model control group
effect on high-density lipoprotein (HDL-c) level compared with the vehicle group [2]: significantly reduce
effect on low-density lipoprotein (LDL-c) level compared with the vehicle group [2]: significantly reduce
effect on total cholesterol (TCHO) level compared with the vehicle group [2]: significantly reduce
effect on triglyceride (TG) level compared with the vehicle group [2]: significantly reduce
formation of arterial plaque (pathological results) [3]: could delay the formation of arterial plaque in ApoE knockout mice to a certain extent
Mild n (number of animal cases with mild lesions) ([3]; 2 mg/kg body weight): 4
Moderate n (number of animal cases with moderate lesions) ([3]; 2 mg/kg body weight): 0
No lesion n (number of animal cases) ([3]; 2 mg/kg body weight): 1
Severe n (number of animal cases with severe lesions) ([3]; 2 mg/kg body weight): 3
Mild n (number of animal cases with mild lesions) ([3]; 5 mg/kg body weight): 5
Moderate n (number of animal cases with moderate lesions) ([3]; 5 mg/kg body weight): 0
No lesion n (number of animal cases) ([3]; 5 mg/kg body weight): 3
Severe n (number of animal cases with severe lesions) ([3]; 5 mg/kg body weight): 0
Mild n (number of animal cases with mild lesions) ([3]; 10 mg/kg body weight): 1
Moderate n (number of animal cases with moderate lesions) ([3]; 10 mg/kg body weight): 2
No lesion n (number of animal cases) ([3]; 10 mg/kg body weight): 2
Severe n (number of animal cases with severe lesions) ([3]; 10 mg/kg body weight): 3
animals that had atherosclerosis (histological observation) ([3]; 2 mg/kg): 7 cases
animals that had atherosclerosis (histological observation) ([3]; 5 mg/kg): 5 cases
animals that had atherosclerosis (histological observation) ([3]; 10 mg/kg): 6 cases
effect on atherosclerotic lesions compared with the statin group [3]: equivalent to or better than that of the statin group
Scores (atherosclerotic lesion score, average of the group) [3, 9]: 1.62 ± 1.19
Scores (atherosclerotic lesion score, average of the group) [3, 10]: 0.62 ± 0.52
Scores (atherosclerotic lesion score, average of the group) ([3]; score 0-3 per Table 8, 5 mg/kg body weight, listed as sample A): lower than the model control group
Scores (atherosclerotic lesion score, average of the group) ([3]; score 0-3 per Table 8, 10 mg/kg body weight): 1.75 ± 1.28
aorta (VCAM-1) signal expression in blood vessels ([4]; 2 mg/kg): low to medium
aorta (VCAM-1) signal expression in blood vessels ([4]; 5 mg/kg): low to medium
aorta (VCAM-1) signal expression in blood vessels ([4]; 10 mg/kg): low to medium
VCAM-1 average optical density ([4]; 2 mg/kg gavage QD): 1.41 ± 0.34 ×10^−2
VCAM-1 average optical density ([4]; 5 mg/kg gavage QD, 5 mg/kg): 0.77 ± 0.46 ×10^−2
VCAM-1 average optical density [4, 6]: reduced expression
VCAM-1 average optical density [4, 7]: lower than the model control group
VCAM-1 average optical density ([4]; 10 mg/kg gavage QD, 10 mg/kg): 0.49 ± 0.51 ×10^−2
VCAM-1 average optical density [4, 8]: lower than the model control group
aorta (CD68) signal expression in blood vessels ([5]; 2 mg/kg): low to medium
aorta (CD68) signal expression in blood vessels ([5]; 5 mg/kg): low to medium
aorta (CD68) signal expression in blood vessels ([5]; 10 mg/kg): low to medium
CD68 average optical density ([5]; 2 mg/kg gavage QD): 2.78 ± 2.01 ×10^−2
CD68 average optical density ([5]; 5 mg/kg gavage QD): 1.39 ± 0.67 ×10^−2
CD68 average optical density ([5]; 10 mg/kg gavage QD): 1.86 ± 1.60 ×10^−2

O=C(N/N=C/c1coc2ccccc2c1=O)c1cccnc1 [Sample B]
aorta (ICAM-1) signal expression in blood vessels ([1]; 1 mg/kg): low to medium
aorta (ICAM-1) signal expression in blood vessels ([1]; 2 mg/kg): low to medium
aorta (ICAM-1) signal expression in blood vessels ([1]; 5 mg/kg): low to medium
ICAM-1 average optical density ([1]; 1 mg/kg gavage QD): 2.44 ± 1.19 ×10^−2
ICAM-1 average optical density ([1]; 2 mg/kg gavage QD, 2 mg/kg): 1.31 ± 1.40 ×10^−2
ICAM-1 average optical density [1, 11]: reduced expression
ICAM-1 average optical density ([1]; 2 mg/kg gavage QD, listed as sample B, 2 mg/kg): lower than the model control group
ICAM-1 average optical density ([1]; 5 mg/kg gavage QD): 3.98 ± 1.64 ×10^−2
effect on high-density lipoprotein (HDL-c) level compared with the vehicle group [2]: no obvious effect
effect on low-density lipoprotein (LDL-c) level compared with the vehicle group [2]: significantly reduce
effect on total cholesterol (TCHO) level compared with the vehicle group [2]: significantly reduce
effect on triglyceride (TG) level compared with the vehicle group [2]: significantly reduce
formation of arterial plaque (pathological results) [3]: could delay the formation of arterial plaque in ApoE knockout mice to a certain extent
Mild n (number of animal cases with mild lesions) ([3]; 1 mg/kg body weight): 2
Moderate n (number of animal cases with moderate lesions) ([3]; 1 mg/kg body weight): 2
No lesion n (number of animal cases) ([3]; 1 mg/kg body weight): 1
Severe n (number of animal cases with severe lesions) ([3]; 1 mg/kg body weight): 3
Mild n (number of animal cases with mild lesions) ([3]; 2 mg/kg body weight): 3
Moderate n (number of animal cases with moderate lesions) ([3]; 2 mg/kg body weight): 1
No lesion n (number of animal cases) ([3]; 2 mg/kg body weight): 4
Severe n (number of animal cases with severe lesions) ([3]; 2 mg/kg body weight): 0
Mild n (number of animal cases with mild lesions) ([3]; 5 mg/kg body weight): 3
Moderate n (number of animal cases with moderate lesions) ([3]; 5 mg/kg body weight): 2
No lesion n (number of animal cases) ([3]; 5 mg/kg body weight): 1
Severe n (number of animal cases with severe lesions) ([3]; 5 mg/kg body weight): 2
animals that had atherosclerosis (histological observation) ([3]; 1 mg/kg): 7 cases
animals that had atherosclerosis (histological observation) ([3]; 2 mg/kg): 4 cases
animals that had atherosclerosis (histological observation) ([3]; 5 mg/kg): 7 cases
effect on atherosclerotic lesions compared with the statin group [3]: equivalent to or better than that of the statin group
Scores (atherosclerotic lesion score, average of the group) ([3]; score 0-3 per Table 8, 1 mg/kg body weight): 1.88 ± 1.13
Scores (atherosclerotic lesion score, average of the group) [3, 9]: 0.62 ± 0.74
Scores (atherosclerotic lesion score, average of the group) ([3]; score 0-3 per Table 8, 2 mg/kg body weight, listed as sample B): lower than the model control group
Scores (atherosclerotic lesion score, average of the group) [3, 10]: 1.62 ± 1.06
aorta (VCAM-1) signal expression in blood vessels ([4]; 1 mg/kg): low to medium
aorta (VCAM-1) signal expression in blood vessels ([4]; 2 mg/kg): low to medium
aorta (VCAM-1) signal expression in blood vessels ([4]; 5 mg/kg): low to medium
VCAM-1 average optical density ([4]; 1 mg/kg gavage QD): 1.24 ± 0.99 ×10^−2
VCAM-1 average optical density ([4]; 2 mg/kg gavage QD, 2 mg/kg): 1.54 ± 1.11 ×10^−2
VCAM-1 average optical density [4, 11]: reduced expression
VCAM-1 average optical density ([4]; 5 mg/kg gavage QD): 1.69 ± 0.85 ×10^−2
aorta (CD68) signal expression in blood vessels ([5]; 1 mg/kg): low to medium
aorta (CD68) signal expression in blood vessels ([5]; 2 mg/kg): low to medium
aorta (CD68) signal expression in blood vessels ([5]; 5 mg/kg): low to medium
CD68 average optical density ([5]; 1 mg/kg gavage QD): 1.85 ± 1.51 ×10^−2
CD68 average optical density ([5]; 2 mg/kg gavage QD): 2.22 ± 0.99 ×10^−2
CD68 average optical density ([5]; 5 mg/kg gavage QD): 2.83 ± 1.40 ×10^−2

Source: patent publication US20220202801A1, “USE OF COMPOUND IN PREPARATION OF DRUG FOR TREATING ATHEROSCLEROSIS” (GenEros Biopharma Ltd., priority 2019, published 2022)
